Measured values published in patent US20240238242A1, “EGCG buccal tablet and use thereof” (priority 2023, published 2024).
Several values for one entry are separate records, joined by “and”; a condition that tells them apart may be missing. Equal values may be shown once. Read-outs that look alike come from different tables or passages of the source.

Tested on: Influenza A virus neuraminidase inhibitor-resistant strain (ZX-1109)
Format: cell-based

O=C(O[C@@H]1Cc2c(O)cc(O)cc2O[C@@H]1c1cc(O)c(O)c(O)c1)c1cc(O)c(O)c(O)c1 [EGCG, Epigallocatechin gallate]
92.16%: average inactivation efficiency against virus (0.2 mM EGCG, ZX1109 virus, 5 minutes, three experiments)
− and +: CPE test (virus replication in the cell wells) (0.2 mM EGCG + ZX-1109 virus, 1 minute, third experiment, dilution factor 10^5, wells 1-10) | CPE test (virus replication in the cell wells) (0.2 mM EGCG + ZX-1109 virus, 5 minute, first experiment, dilution factor 10^6, wells 1-10) | CPE test (virus replication in the cell wells) (0.2 mM EGCG + ZX-1109 virus, 5 minute, first experiment, dilution factor 10^7, wells 1-10) | CPE test (virus replication in the cell wells) (0.2 mM EGCG + ZX-1109 virus, 5 minute, first experiment, dilution factor 10^8, wells 1-10) | CPE test (virus replication in the cell wells) (0.2 mM EGCG + ZX-1109 virus, 5 minute, second experiment, dilution factor 10^6, wells 1-10) | CPE test per cell well (0.2 mM EGCG + ZX-1109 virus, 5 minute, third experiment, dilution factor 10^8, wells 1-10) | CPE test per cell well (1 mM EGCG + ZX1109 virus, 1 minute, second experiment, dilution factor 10^5, wells 1-10)
+ and −: CPE test per cell well (0.2 mM EGCG + ZX1109 virus, 1 minute, second experiment, dilution factor 10^5, wells 1-10) | CPE test per cell well (0.2 mM EGCG + ZX-1109 virus, 1 minute, first experiment, dilution factor 10^5, wells 1-10) | CPE test per cell well (0.2 mM EGCG + ZX-1109 virus, 1 minute, first experiment, dilution factor 10^6, wells 1-10) | CPE test (virus replication in the cell wells) (0.2 mM EGCG + ZX-1109 virus, 1 minute, third experiment, dilution factor 10^6, wells 1-10) | CPE test (virus replication in the cell wells) (0.2 mM EGCG + ZX-1109 virus, 5 minute, second experiment, dilution factor 10^5, wells 1-10) | CPE test per cell well (0.2 mM EGCG + ZX-1109 virus, 5 minute, third experiment, dilution factor 10^6, wells 1-10) | CPE test per cell well (0.2 mM EGCG + ZX-1109 virus, 5 minute, third experiment, dilution factor 10^7, wells 1-10) | CPE test per cell well (1 mM EGCG + ZX-1109 virus, 1 minute, first experiment, dilution factor 10^5, wells 1-10) | CPE test (virus replication in the cell wells) (1 mM EGCG + ZX-1109 virus, 1 minute, third experiment, dilution factor 10^5, wells 1-10)
98.42% and 98.00% and 80.05%: inactivation efficiency against the virus (0.2 mM EGCG, ZX-1109 virus, 5 minutes, single experiment)
10^7 TCID50/50 μL: residual virus titer of EGCG+virus group (Karber method) (0.2 mM EGCG, ZX-1109 virus, 5 minutes)
+: CPE test per cell well (0.2 mM EGCG + ZX1109 virus, 1 minute, second experiment, dilution factor 10^1, wells 1-10) | CPE test per cell well (0.2 mM EGCG + ZX1109 virus, 1 minute, second experiment, dilution factor 10^2, wells 1-10) | CPE test per cell well (0.2 mM EGCG + ZX1109 virus, 1 minute, second experiment, dilution factor 10^3, wells 1-10) | CPE test per cell well (0.2 mM EGCG + ZX1109 virus, 1 minute, second experiment, dilution factor 10^4, wells 1-10) | CPE test per cell well (0.2 mM EGCG + ZX-1109 virus, 1 minute, first experiment, dilution factor 10^1, wells 1-10) | CPE test per cell well (0.2 mM EGCG + ZX-1109 virus, 1 minute, first experiment, dilution factor 10^2, wells 1-10) | CPE test per cell well (0.2 mM EGCG + ZX-1109 virus, 1 minute, first experiment, dilution factor 10^3, wells 1-10) | CPE test per cell well (0.2 mM EGCG + ZX-1109 virus, 1 minute, first experiment, dilution factor 10^4, wells 1-10) | CPE test (virus replication in the cell wells) (0.2 mM EGCG + ZX-1109 virus, 1 minute, third experiment, dilution factor 10^1, wells 1-10) | CPE test (virus replication in the cell wells) (0.2 mM EGCG + ZX-1109 virus, 1 minute, third experiment, dilution factor 10^2, wells 1-10) | CPE test (virus replication in the cell wells) (0.2 mM EGCG + ZX-1109 virus, 1 minute, third experiment, dilution factor 10^3, wells 1-10) | CPE test (virus replication in the cell wells) (0.2 mM EGCG + ZX-1109 virus, 1 minute, third experiment, dilution factor 10^4, wells 1-10) | CPE test (virus replication in the cell wells) (0.2 mM EGCG + ZX-1109 virus, 5 minute, first experiment, dilution factor 10^1, wells 1-10) | CPE test (virus replication in the cell wells) (0.2 mM EGCG + ZX-1109 virus, 5 minute, first experiment, dilution factor 10^2, wells 1-10) | CPE test (virus replication in the cell wells) (0.2 mM EGCG + ZX-1109 virus, 5 minute, first experiment, dilution factor 10^3, wells 1-10) | CPE test (virus replication in the cell wells) (0.2 mM EGCG + ZX-1109 virus, 5 minute, first experiment, dilution factor 10^4, wells 1-10) | CPE test (virus replication in the cell wells) (0.2 mM EGCG + ZX-1109 virus, 5 minute, first experiment, dilution factor 10^5, wells 1-10) | CPE test (virus replication in the cell wells) (0.2 mM EGCG + ZX-1109 virus, 5 minute, second experiment, dilution factor 10^1, wells 1-10) | CPE test (virus replication in the cell wells) (0.2 mM EGCG + ZX-1109 virus, 5 minute, second experiment, dilution factor 10^2, wells 1-10) | CPE test (virus replication in the cell wells) (0.2 mM EGCG + ZX-1109 virus, 5 minute, second experiment, dilution factor 10^3, wells 1-10) | CPE test (virus replication in the cell wells) (0.2 mM EGCG + ZX-1109 virus, 5 minute, second experiment, dilution factor 10^4, wells 1-10) | CPE test per cell well (0.2 mM EGCG + ZX-1109 virus, 5 minute, third experiment, dilution factor 10^1, wells 1-10) | CPE test per cell well (0.2 mM EGCG + ZX-1109 virus, 5 minute, third experiment, dilution factor 10^2, wells 1-10) | CPE test per cell well (0.2 mM EGCG + ZX-1109 virus, 5 minute, third experiment, dilution factor 10^3, wells 1-10) | CPE test per cell well (0.2 mM EGCG + ZX-1109 virus, 5 minute, third experiment, dilution factor 10^4, wells 1-10) | CPE test per cell well (0.2 mM EGCG + ZX-1109 virus, 5 minute, third experiment, dilution factor 10^5, wells 1-10) | CPE test per cell well (1 mM EGCG + ZX1109 virus, 1 minute, second experiment, dilution factor 10^1, wells 1-10) | CPE test per cell well (1 mM EGCG + ZX1109 virus, 1 minute, second experiment, dilution factor 10^2, wells 1-10) | CPE test per cell well (1 mM EGCG + ZX1109 virus, 1 minute, second experiment, dilution factor 10^3, wells 1-10) | CPE test per cell well (1 mM EGCG + ZX1109 virus, 1 minute, second experiment, dilution factor 10^4, wells 1-10) | CPE test per cell well (1 mM EGCG + ZX-1109 virus, 1 minute, first experiment, dilution factor 10^1, wells 1-10) | CPE test per cell well (1 mM EGCG + ZX-1109 virus, 1 minute, first experiment, dilution factor 10^2, wells 1-10) | CPE test per cell well (1 mM EGCG + ZX-1109 virus, 1 minute, first experiment, dilution factor 10^3, wells 1-10) | CPE test per cell well (1 mM EGCG + ZX-1109 virus, 1 minute, first experiment, dilution factor 10^4, wells 1-10) | CPE test (virus replication in the cell wells) (1 mM EGCG + ZX-1109 virus, 1 minute, third experiment, dilution factor 10^1, wells 1-10) | CPE test (virus replication in the cell wells) (1 mM EGCG + ZX-1109 virus, 1 minute, third experiment, dilution factor 10^2, wells 1-10) | CPE test (virus replication in the cell wells) (1 mM EGCG + ZX-1109 virus, 1 minute, third experiment, dilution factor 10^3, wells 1-10) | CPE test (virus replication in the cell wells) (1 mM EGCG + ZX-1109 virus, 1 minute, third experiment, dilution factor 10^4, wells 1-10)
−: CPE test per cell well (0.2 mM EGCG + ZX1109 virus, 1 minute, second experiment, dilution factor 10^6, wells 1-10) | CPE test per cell well (0.2 mM EGCG + ZX1109 virus, 1 minute, second experiment, dilution factor 10^7, wells 1-10) | CPE test per cell well (0.2 mM EGCG + ZX1109 virus, 1 minute, second experiment, dilution factor 10^8, wells 1-10) | CPE test per cell well (0.2 mM EGCG + ZX-1109 virus, 1 minute, first experiment, dilution factor 10^7, wells 1-10) | CPE test per cell well (0.2 mM EGCG + ZX-1109 virus, 1 minute, first experiment, dilution factor 10^8, wells 1-10) | CPE test (virus replication in the cell wells) (0.2 mM EGCG + ZX-1109 virus, 1 minute, third experiment, dilution factor 10^7, wells 1-10) | CPE test (virus replication in the cell wells) (0.2 mM EGCG + ZX-1109 virus, 1 minute, third experiment, dilution factor 10^8, wells 1-10) | CPE test (virus replication in the cell wells) (0.2 mM EGCG + ZX-1109 virus, 5 minute, second experiment, dilution factor 10^7, wells 1-10) | CPE test per cell well (1 mM EGCG + ZX1109 virus, 1 minute, second experiment, dilution factor 10^6, wells 1-10) | CPE test per cell well (1 mM EGCG + ZX1109 virus, 1 minute, second experiment, dilution factor 10^7, wells 1-10) | CPE test per cell well (1 mM EGCG + ZX1109 virus, 1 minute, second experiment, dilution factor 10^8, wells 1-10) | CPE test per cell well (1 mM EGCG + ZX-1109 virus, 1 minute, first experiment, dilution factor 10^6, wells 1-10) | CPE test per cell well (1 mM EGCG + ZX-1109 virus, 1 minute, first experiment, dilution factor 10^7, wells 1-10) | CPE test per cell well (1 mM EGCG + ZX-1109 virus, 1 minute, first experiment, dilution factor 10^8, wells 1-10)
